# Literature values as cited in US20140044784A1, “COMBINED FORMULATION WITH IMPROVED STABILITY” (BORYUNG PHARMACEUTICAL CO., LTD, priority 2011, published 2014).
# Conditions: daily administration of a low dose (about 80 mg)
compound,measurement,value
"CC(=O)Oc1ccccc1C(=O)O [aspirin, acetylsalicylic acid]","Reduction of heart attack, stroke, and cardiovascular mortalities",at least 25%
